Data published in patent US9469650B2, “Melampomagnolide B derivatives” (BOARD OF TRUSTEES OF THE UNIVERSITY OF ARKANSAS, priority 2013, dated 2016).
Like-named read-outs stand apart in the source and are kept apart here.

Experiments:
DU-145 = assay: panel of 60 human tumor cell lines, growth inhibition (Prostate Cancer); details: Homo sapiens; for GI50: DU-145; for CC50: DU-145, read-out: LC50; for IC (TGI): DU-145, read-out: TGI
U251 = assay: panel of 60 human tumor cell lines, growth inhibition (CNS Cancer); details: Homo sapiens; for GI50: U-251; for CC50: U-251, read-out: LC50; for IC (TGI): U-251, read-out: TGI
UACC-257 = assay: panel of 60 human tumor cell lines, growth inhibition (Melanoma); details: for GI50 / CC50: Homo sapiens; for GI50 / Percent Growth / TGI: UACC-257; for CC50: UACC-257, read-out: LC50; for TGI: NCI five dose
HS 578T = assay: panel of 60 human tumor cell lines, growth inhibition (Breast Cancer); details: Homo sapiens, Hs-578T; for CC50: read-out: LC50; for IC (TGI): read-out: TGI
SK-MEL-5 = assay: panel of 60 human tumor cell lines, growth inhibition (Melanoma); details: Homo sapiens; for GI50: SK-MEL-5; for CC50: SK-MEL-5, read-out: LC50; for IC (TGI): SK-MEL-5, read-out: TGI
NCI-H226 = assay: panel of 60 human tumor cell lines, growth inhibition (Non-Small Cell Lung Cancer); details: Homo sapiens; for GI50: NCI-H226; for CC50: NCI-H226, read-out: LC50; for IC (TGI): NCI-H226, read-out: TGI
OVCAR-3 = assay: panel of 60 human tumor cell lines, growth inhibition (Ovarian Cancer); details: for GI50 / CC50 / IC (TGI): Homo sapiens; for GI50 / Percent Growth: OVCAR-3; for CC50: OVCAR-3, read-out: LC50; for IC (TGI): OVCAR-3, read-out: TGI
MOLT-4 = assay: panel of 60 human tumor cell lines, growth inhibition (Leukemia); details: Homo sapiens; for GI50: MOLT-4; for CC50: MOLT-4, read-out: LC50; for IC (TGI): MOLT-4, read-out: TGI
K-562 = assay: as above; details: for GI50 / CC50: Homo sapiens; for GI50: K562; for CC50: K562, read-out: LC50; for Percent Growth / TGI: K-562; for TGI: NCI five dose
PC-3 = assay: panel of 60 human tumor cell lines, growth inhibition (Prostate Cancer); details: Homo sapiens; for GI50: PC-3; for CC50: PC-3, read-out: LC50; for IC (TGI): PC-3, read-out: TGI
MDA-MB-468 = assay: panel of 60 human tumor cell lines, growth inhibition (Breast Cancer); details: Homo sapiens; for GI50: MDA-MB-468; for CC50: MDA-MB-468, read-out: LC50; for IC (TGI): MDA-MB-468, read-out: TGI
T-47D = assay: as above; details: Homo sapiens, T47D; for CC50: read-out: LC50; for IC (TGI): read-out: TGI
A498 = assay: panel of 60 human tumor cell lines, growth inhibition (Renal Cancer); details: Homo sapiens; for GI50: A498; for CC50: A498, read-out: LC50; for IC (TGI): A498, read-out: TGI
NCI-H460 = assay: panel of 60 human tumor cell lines, growth inhibition (Non-Small Cell Lung Cancer); details: Homo sapiens; for GI50: NCI-H460; for CC50: NCI-H460, read-out: LC50
HOP-62 = assay: as above; details: Homo sapiens; for GI50: HOP-62; for CC50: HOP-62, read-out: LC50; for IC (TGI): HOP-62, read-out: TGI
HOP-92 = assay: as above; details: Homo sapiens; for GI50: HOP-92, HOP-92, NCI five dose; for CC50: HOP-92, read-out: LC50; for IC (TGI): HOP-92, read-out: TGI
786-0 = assay: panel of 60 human tumor cell lines, growth inhibition (Renal Cancer); details: Homo sapiens; for GI50: 786-0; for CC50: 786-0, read-out: LC50; for IC (TGI): 786-0, read-out: TGI

## C=C1C(=O)O[C@H]2[C@H]1CC/C(COC(=O)OCCN(C)C)=C\CC[C@@]1(C)O[C@@H]21 [JVM 2-35]
DU-145
  GI50: 3.59 µM
  CC50: 37.7 µM
  IC (TGI): 13.2 µM
U251
  GI50: 20.3 µM
  CC50: > 100 µM
  IC (TGI): 45.2 µM
UACC-257
  GI50: 10.2 µM
  CC50: 55.2 µM
  TGI: 2.38E−5
UACC-257; Log10 Concentration −4.0
  Percent Growth: −85%
UACC-257; Log10 Concentration −5.0
  Percent Growth: 51%
UACC-257; Log10 Concentration −6.0
  Percent Growth: 92%
UACC-257; Log10 Concentration −7.0
  Percent Growth: 86%
UACC-257; Log10 Concentration −8.0
  Percent Growth: 93%
HS 578T
  GI50: 13.6 µM
  CC50: > 100 µM
  IC (TGI): 59.3 µM
SK-MEL-5
  GI50: 11.5 µM
  CC50: 53.8 µM
  IC (TGI): 24.9 µM
NCI-H226
  GI50: 11.9 µM
  CC50: 89.9 µM
  IC (TGI): 32.7 µM
OVCAR-3
  GI50: 3.31 µM
  CC50: 35.3 µM
  IC (TGI): 11.5 µM
OVCAR-3; Log10 Concentration −4.0
  Percent Growth: −96%
OVCAR-3; Log10 Concentration −5.0
  Percent Growth: 6%
OVCAR-3; Log10 Concentration −6.0
  Percent Growth: 97%
OVCAR-3; Log10 Concentration −7.0
  Percent Growth: 106%
OVCAR-3; Log10 Concentration −8.0
  Percent Growth: 98%
MOLT-4
  GI50: 5.5 µM
  CC50: > 100 µM
  IC (TGI): 26.1 µM
K-562
  GI50: 5.55 µM
  CC50: > 100 µM
  TGI: 3.00E−5
K-562; Log10 Concentration −4.0
  Percent Growth: −33%
K-562; Log10 Concentration −5.0
  Percent Growth: 30%
K-562; Log10 Concentration −6.0
  Percent Growth: 107%
K-562; Log10 Concentration −7.0
  Percent Growth: 96%
K-562; Log10 Concentration −8.0
  Percent Growth: 101%
PC-3
  GI50: 14 µM
  CC50: 64.5 µM
  IC (TGI): 30 µM
MDA-MB-468
  GI50: 1.46 µM
  CC50: 50.4 µM
  IC (TGI): 9.2 µM
T-47D
  GI50: 2.95 µM
  CC50: 58.8 µM
  IC (TGI): 12.4 µM
A498
  GI50: 13.3 µM
  CC50: 56.6 µM
  IC (TGI): 27.4 µM
NCI-H460
  GI50: 20.7 µM
  CC50: > 100 µM
NCI-H460; NCI-H460, read-out: TGI
  IC (TGI): 52.1 µM
HOP-62
  GI50: 22.9 µM
  CC50: > 100 µM
  IC (TGI): 82.1 µM
HOP-92
  GI50: 2.69 µM
  CC50: 35.8 µM
  IC (TGI): 10.1 µM
786-0
  GI50: 2.75 µM
  CC50: 37.3 µM
  IC (TGI): 12.1 µM
HL-60(TB); Log10 Concentration −4.0
  Percent Growth: −52%
HL-60(TB); Log10 Concentration −5.0
  Percent Growth: −17%
HL-60(TB); Log10 Concentration −6.0
  Percent Growth: 72%
HL-60(TB); Log10 Concentration −7.0
  Percent Growth: 83%
HL-60(TB); Log10 Concentration −8.0
  Percent Growth: 94%

## C=C1C(=O)O[C@H]2[C@H]1CC/C(COC(=O)OC)=C\CC[C@@]1(C)O[C@@H]21 [JVM 2-40]
DU-145
  GI50: 3.35 µM
  CC50: 37.7 µM
  IC (TGI): 14 µM
U251
  GI50: 16.4 µM
  CC50: 55.5 µM
  IC (TGI): 30.2 µM
UACC-257
  GI50: 4.98 µM
  CC50: 46.7 µM
  TGI: 1.90E−5
UACC-257; Log10 Concentration −4.0
  Percent Growth: −92%
UACC-257; Log10 Concentration −5.0
  Percent Growth: 36%
UACC-257; Log10 Concentration −6.0
  Percent Growth: 82%
UACC-257; Log10 Concentration −7.0
  Percent Growth: 84%
UACC-257; Log10 Concentration −8.0
  Percent Growth: 90%
HS 578T
  GI50: 4.72 µM
  CC50: > 100 µM
  IC (TGI): 38.9 µM
SK-MEL-5
  GI50: 7.58 µM
  CC50: 50.6 µM
  IC (TGI): 21.5 µM
NCI-H226
  GI50: 7.07 µM
  CC50: 87.7 µM
  IC (TGI): 27.4 µM
OVCAR-3
  GI50: 2.63 µM
  CC50: 30.6 µM
  IC (TGI): 9.31 µM
OVCAR-3; Log10 Concentration −4.0
  Percent Growth: −100%
OVCAR-3; Log10 Concentration −5.0
  Percent Growth: −3%
OVCAR-3; Log10 Concentration −6.0
  Percent Growth: 88%
OVCAR-3; Log10 Concentration −7.0
  Percent Growth: 100%
OVCAR-3; Log10 Concentration −8.0
  Percent Growth: 99%
MOLT-4
  GI50: 4.05 µM
  CC50: > 100 µM
  IC (TGI): 21.7 µM
K-562
  GI50: 4.12 µM
  CC50: > 100 µM
  TGI: 2.53E−5
K-562; Log10 Concentration −4.0
  Percent Growth: −31%
K-562; Log10 Concentration −5.0
  Percent Growth: 21%
K-562; Log10 Concentration −6.0
  Percent Growth: 97%
K-562; Log10 Concentration −7.0
  Percent Growth: 99%
K-562; Log10 Concentration −8.0
  Percent Growth: 101%
PC-3
  GI50: 12 µM
  CC50: 59.4 µM
  IC (TGI): 26.7 µM
MDA-MB-468
  GI50: 0.574 µM
  CC50: 19.2 µM
  IC (TGI): 3.09 µM
T-47D
  GI50: 2.7 µM
  CC50: 61.3 µM
  IC (TGI): 12.5 µM
A498
  GI50: 10.9 µM
  CC50: 49 µM
  IC (TGI): 23.1 µM
NCI-H460
  GI50: 16.7 µM
  CC50: 89.7 µM
HOP-62
  GI50: 14.9 µM
  CC50: 62.2 µM
  IC (TGI): 30.4 µM
HOP-92
  GI50: 2.33 µM
  CC50: 30.7 µM
  IC (TGI): 7.99 µM
786-0
  GI50: 3.29 µM
  CC50: 48.5 µM
  IC (TGI): 14.4 µM
HL-60(TB); Log10 Concentration −4.0
  Percent Growth: −55%
HL-60(TB); Log10 Concentration −5.0
  Percent Growth: −12%
HL-60(TB); Log10 Concentration −6.0
  Percent Growth: 68%
HL-60(TB); Log10 Concentration −7.0
  Percent Growth: 91%
HL-60(TB); Log10 Concentration −8.0
  Percent Growth: 97%
